Results reported in ChEMBL document CHEMBL1147791, “Polyamines and the NMDA receptor: modifying intrinsic activities with aromatic substituents” (Bioorg Med Chem Lett, 2006).

Experiments:
Assay type in all cases: protein-complex assay
[1] = target: Glutamate NMDA receptor; assay: Inhibition of [3H]MK-801 binding to rat NMDA receptor
[2] = target: T1, Glutamate NMDA receptor (Rattus norvegicus) (UniProt P35439+Q00959+Q00960+Q00961+Q62645+Q8VHN2+Q9R1M7); assay: Attenuation at rat NMDA receptor assessed as ratio of inhibition of [3H]MK-801 binding to NMDA receptor in presence to absence of spermine
[3] = target: Glutamate NMDA receptor; assay: (§1) Stimulation of [3H]MK-801 binding to rat NMDA receptor
[4] = target: T1, Glutamate NMDA receptor (Rattus norvegicus); assay: as §1

| Structure (SMILES) | IC50 [1] [µM] | Ratio IC50 [2] | EC50 [3] [µM] | Activity [4] [%] |
| --- | --- | --- | --- | --- |
| NCCCCN(CCCN)CCCc1ccccc1 | > 300 |  |  |  |
| CC(C)(C)OC(=O)N(CCCN)CCCCN | > 300 |  |  |  |
| NCCCCN(CCCN)Cc1ccccc1 | > 300 |  |  |  |
| NCCCN(CCCCN(CCCN)Cc1ccccc1)Cc1ccccc1 | 38 | 4.3 |  |  |
| O=C(NCCCCNCCCNC(=O)OCc1ccccc1)OCc1ccccc1 | 56 | > 10 |  |  |
| O=C(Cc1ccccc1)NCCCNCCCCNCCCNC(=O)Cc1ccccc1 | 103 | > 10 |  |  |
| NCCCCN(CCCN)C(=O)c1ccccc1 | 82 | > 10 |  |  |
| NCCCNCCCCN(CCCN)CCCc1ccccc1 | 182 | 0.93 | 1.8 | 26 |
| NCCCNCCCCN(CCCN)Cc1ccccc1 | > 300 |  | 2.7 | 28 |
| O=C(NCCCCNCCCNC(=O)c1ccccc1)c1ccccc1 | > 300 |  |  |  |
| CC(C)NCCCN(CCCCN(CCCNC(C)C)Cc1ccc2ccccc2c1)Cc1ccc2ccccc2c1 | 44.6 | 0.48 |  |  |
| NCCCN(CCCCN(CCCN)CCCc1ccccc1)CCCc1ccccc1 | 26.7 | 2.6 |  |  |
| CC(C)(C)OC(=O)N(CCCN)CCCCN(CCCN)C(=O)OC(C)(C)C | 6680 | 5.3 |  |  |
| NCCCNCCCCN(CCCN)Cc1ccc2ccccc2c1 | 58 | 1.45 |  |  |

Now those with a lower IC50 [1], led by results:

| IC50 [1] [µM] | Ratio IC50 [2] | EC50 [3] [µM] | Activity [4] [%] | Structure (SMILES) |
| --- | --- | --- | --- | --- |
| 25.6 | 1.43 |  |  | NCCCNCCCCNCCCNCCCc1ccccc1 |
| 17.6 | 67 |  |  | NCCCCN(CCCN)C(=O)OCc1ccccc1 |
| 17.2 | 4.7 |  |  | NCCCN(CCCCN(CCCN)C(=O)OCc1ccccc1)C(=O)OCc1ccccc1 |
| 14.3 | 1.66 |  |  | c1ccc2cc(CN(CCCCNCCCN(Cc3ccc4ccccc4c3)Cc3cccc4ccccc34)Cc3cccc4ccccc34)ccc2c1 |
| 14.2 | 5.1 |  |  | NCCCCN(CCCN)C1c2ccccc2CCc2ccccc21 |
| 14 | 1.96 |  |  | CC(C)NCCCN(CCCCN(CCCN)Cc1ccc2ccccc2c1)Cc1ccc2ccccc2c1 |
| 13.1 | 1.44 |  |  | NCCCN(CCCCN(CCCNCCCc1ccccc1)CCCc1ccccc1)CCCc1ccccc1 |
| 13 | 1.5 |  |  | N=C(N)NCCCN(CCCCN(CCCN)CCCc1ccccc1)CCCc1ccccc1 |
| 11.2 | 0.63 |  |  | N=C(N)NCCCN(CCCCN(CCCNC(=N)N)CCCc1ccccc1)CCCc1ccccc1 |
| 9.8 | 13.1 |  |  | NCCCCN(CCCN)Cc1ccc2ccccc2c1 |
| 9.5 | 2.03 |  |  | c1ccc(CCCNCCCCN(CCCNCCCc2ccccc2)CCCc2ccccc2)cc1 |
| 9.1 | 2.2 |  |  | NCCCN(CCCCN(CCCN)Cc1ccc2ccccc2c1)Cc1ccc2ccccc2c1 |
| 8.7 | 1.32 |  |  | c1ccc2cc(CN(CCCNCCCCNCCCN(Cc3ccc4ccccc4c3)Cc3ccc4ccccc4c3)Cc3ccc4ccccc4c3)ccc2c1 |
| 8.4 | 1.49 |  |  | c1ccc(CCCNCCCN(CCCCN(CCCNCCCc2ccccc2)CCCc2ccccc2)CCCc2ccccc2)cc1 |
| 7.4 | 0.92 |  |  | c1ccc(CCCNCCCNCCCCNCCCNCCCc2ccccc2)cc1 |
| 6.2 | 5.9 |  |  | c1ccc(CNCCCCNCCCNCc2ccccc2)cc1 |
| 6.12 | 2.27 |  |  | c1ccc(CNCCCNCCCCNCCCNCc2ccccc2)cc1 |
| 4.7 | 2.84 |  |  | c1ccc2cc(CNCCCNCCCCNCCCNCc3ccc4ccccc4c3)ccc2c1 |
| 4.37 | 2.2 |  |  | c1ccc2c(CNCCCCNCCCNCc3cccc4ccccc34)cccc2c1 |
| 3.9 | 1.58 |  |  | c1ccc(CCCN(CCCNCCCCNCCCN(CCCc2ccccc2)CCCc2ccccc2)CCCc2ccccc2)cc1 |
